Reference: patent US20080096967A1, “Formulations for Injection of Catecholic Butanes, Including Ndga Compounds, Into Animals” (priority 2005, published 2008)

Test system: HeLa, an HPV-18 positive human cervical cancer cell line
Test: Cell proliferation and cell death, trypan blue exclusion, HeLa cells
Assay type: cell-based
Method: M4N in 10% (w/v) HP-β-CD and 25% (v/v) PEG 300 (hereafter, the “CPE formulation”), M4N in 30% (w/v) HP-β-CD and 25% (v/v) PEG 300 (hereafter, the “CPE 25/30 formulation”) and M4N in 27% (w/v) HP-β-CD and 33% (v/v) PEG 300 (hereafter, the “CPE 33/27 formulation”) was tested for their effects on cell death and proliferation on two different tumor cell lines: HeLa, an HPV-18 positive human cervical cancer cell line, and C-33A, an HPV-negative human cervical cancer cell line M4N in DMSO was also tested in parallel. Both tumor cell lines were treated with increasing amounts of M4N: 0 μM, 20 μM, 40 μM, 60 μM and 80 μM, for 72 hr with the DMSO or the CPE formulation. Each formulation was added to total 1% of the growth media (Minimal Essential Medium with L-glutamine supplemented with 10% fetal bovine serum, 1 mM sodium pyruvate, 1× non-essential amino acid solution, and 1,000 IU/mL penicillin/1,000 μg/mL streptomycin solution). Control cells were grown under the same conditions and were left untreated. After 72 hr of treatment or no treatment, the total number of cells and the number of live cells in each sample were counted, using the trypan blue exclusion method. The cell proliferation rate and the percentage of dead cells in each sample were analyzed. Results of this experiment are shown in FIG. 1, FIG. 2, and Tables 6 through 12.
FIG. 1 is a graphical representation of the ratio of the number of treated cells/number of untreated cells plotted against increasing concentrations of M4N in either the DMSO formulation or the CPE formulation for treatment of the C-33A cells and HeLa cells. FIG. 2 is a graphical representation of the percentage of dead cells plotted against increasing concentrations of M4N and in either DMSO formulation or the CPE formulation for treatment of the two cancer cell lines, C-33A and HeLa cells in culture.
Various lots of M4N were tested to show the effectiveness of the drug of different lots. HeLa cells were treated with increasing amounts of M4N: 0 μM, 20 μM, 40 μM, 60 μM and 80 μM, for 72 hr with the CPE formulation. Each formulation was added to total 1% of the growth media (Minimal Essential Medium with L-glutamine supplemented with 10% fetal bovine serum, 1 mM sodium pyruvate, 1× non-essential amino acid solution, and 1,000 IU/mL penicillin/1,000 μg/mL streptomycin solution). Control cells were grown under the same conditions and were left untreated. After 72 hr of treatment or no treatment, the total number of cells and the number of live cells in each sample were counted, using the trypan blue exclusion method. The cell proliferation rate and the percentage of dead cells in each sample were analyzed.

[1] = M4N 20 μM in CPE 25/30 formulation, 72 hr
[2] = M4N 20 μM in CPE 25/30 formulation, 72 hr, at 3 months
[3] = M4N 20 μM in CPE 33/27 formulation, 72 hr, time zero
[4] = M4N 20 μM in CPE formulation, 72 hr, at 3 months
[5] = M4N 20 μM in CPE formulation, 72 hr, at 9 months
[6] = M4N 20 μM in CPE formulation, 72 hr, at 12 months
[7] = M4N 20 μM in CPE formulation, 72 hr, comparison with CPE 25/30
[8] = M4N 20 μM in CPE formulation, 72 hr, time 0
[9] = M4N 20 μM in CPE formulation, 72 hr, time zero, comparison with CPE 33/27
[10] = M4N 20 μM in DMSO, 72 hr, at 9 months
[11] = M4N 20 μM in DMSO, 72 hr, at 12 months
[12] = M4N 20 μM in DMSO, 72 hr, time 0
[13] = M4N 40 μM in CPE 25/30 formulation, 72 hr
[14] = M4N 40 μM in CPE 25/30 formulation, 72 hr, at 3 months
[15] = M4N 40 μM in CPE 33/27 formulation, 72 hr, time zero
[16] = M4N 40 μM in CPE formulation, 72 hr, at 3 months
[17] = M4N 40 μM in CPE formulation, 72 hr, at 9 months
[18] = M4N 40 μM in CPE formulation, 72 hr, at 12 months
[19] = M4N 40 μM in CPE formulation, 72 hr, comparison with CPE 25/30
[20] = M4N 40 μM in CPE formulation, 72 hr, time 0
[21] = M4N 40 μM in CPE formulation, 72 hr, time zero, comparison with CPE 33/27
[22] = M4N 40 μM in DMSO, 72 hr, at 9 months
[23] = M4N 40 μM in DMSO, 72 hr, at 12 months
[24] = M4N 40 μM in DMSO, 72 hr, time 0
[25] = M4N 60 μM in CPE 25/30 formulation, 72 hr
[26] = M4N 60 μM in CPE 25/30 formulation, 72 hr, at 3 months
[27] = M4N 60 μM in CPE 33/27 formulation, 72 hr, time zero
[28] = M4N 60 μM in CPE formulation, 72 hr, at 3 months
[29] = M4N 60 μM in CPE formulation, 72 hr, at 9 months
[30] = M4N 60 μM in CPE formulation, 72 hr, at 12 months
[31] = M4N 60 μM in CPE formulation, 72 hr, comparison with CPE 25/30
[32] = M4N 60 μM in CPE formulation, 72 hr, time 0
[33] = M4N 60 μM in CPE formulation, 72 hr, time zero, comparison with CPE 33/27
[34] = M4N 60 μM in DMSO, 72 hr, at 9 months
[35] = M4N 60 μM in DMSO, 72 hr, at 12 months
[36] = M4N 60 μM in DMSO, 72 hr, time 0
[37] = M4N 80 μM in CPE 25/30 formulation, 72 hr
[38] = M4N 80 μM in CPE 25/30 formulation, 72 hr, at 3 months
[39] = M4N 80 μM in CPE 33/27 formulation, 72 hr, time zero
[40] = M4N 80 μM in CPE formulation, 72 hr, at 3 months
[41] = M4N 80 μM in CPE formulation, 72 hr, at 9 months
[42] = M4N 80 μM in CPE formulation, 72 hr, at 12 months
[43] = M4N 80 μM in CPE formulation, 72 hr, comparison with CPE 25/30
[44] = M4N 80 μM in CPE formulation, 72 hr, time 0
[45] = M4N 80 μM in CPE formulation, 72 hr, time zero, comparison with CPE 33/27
[46] = M4N 80 μM in DMSO, 72 hr, at 9 months
[47] = M4N 80 μM in DMSO, 72 hr, at 12 months
[48] = M4N 80 μM in DMSO, 72 hr, time 0
[49] = M4N lot EM1001, 20 μM in CPE formulation, 72 hr
[50] = M4N lot EM1001, 40 μM in CPE formulation, 72 hr
[51] = M4N lot EM1001, 60 μM in CPE formulation, 72 hr
[52] = M4N lot EM1001, 80 μM in CPE formulation, 72 hr
[53] = M4N lot EM1002, 20 μM in CPE formulation, 72 hr
[54] = M4N lot EM1002, 40 μM in CPE formulation, 72 hr
[55] = M4N lot EM1002, 60 μM in CPE formulation, 72 hr
[56] = M4N lot EM1002, 80 μM in CPE formulation, 72 hr

## COc1ccc(C[C@@H](C)[C@@H](C)Cc2ccc(OC)c(OC)c2)cc1OC [Formulation M4N, meso-1,4-bis(3,4-dimethoxyphenyl)-2,3-dimethylbutane]
80 μM or […] M4N in CPE formulation
  cell death, share of the cell population: about 20%
80 μM or […] M4N in DMSO formulation
  cell death, share of the cell population: about 40%
CPE formulation, 72 hr
  M4N sufficient to cause about a 50% inhibition in cell proliferation: ~7.2 µg/mL
CPE formulation, lots EM1001 and EM1002
  effectiveness of the drug of different lots: remains the same
[1]
  % Dead Cells: 9.4%
  % Viability: 90.7%
  Proliferation Rate: 0.34
[2]
  % Dead Cells: 11.9%
  % Viability: 88.1%
  Proliferation Rate: 0.39
[3]
  % Dead Cells: 10.9%
  % Viability: 89.2%
  Proliferation Rate: 0.43
[4]
  % Dead Cells: 9.0%
  % Viability: 91.0%
  Proliferation Rate: 0.39
[5]
  % Dead Cells: 31.3%
  % Viability: 68.7%
  Proliferation Rate: 0.24
[6]
  % Dead Cells: 3.3%
  % Viability: 96.8%
  Proliferation Rate: 0.74
[7]
  % Dead Cells: 6.6%
  % Viability: 93.5%
  Proliferation Rate: 0.33
[8]
  % Dead Cells: 4.4%
  % Viability: 95.6%
  Proliferation Rate: 0.52
[9]
  % Dead Cells: 11.9%
  % Viability: 88.1%
  Proliferation Rate: 0.35
[10]
  % Dead Cells: 10.7%
  % Viability: 89.3%
  Proliferation Rate: 0.19
[11]
  % Dead Cells: 12.6%
  % Viability: 87.4%
  Proliferation Rate: 0.23
[12]
  % Dead Cells: 9.9%
  % Viability: 90.1%
  Proliferation Rate: 0.25
[13]
  % Dead Cells: 11.0%
  % Viability: 89.1%
  Proliferation Rate: 0.31
[14]
  % Dead Cells: 13.4%
  % Viability: 86.6%
  Proliferation Rate: 0.32
[15]
  % Dead Cells: 13.6%
  % Viability: 86.4%
  Proliferation Rate: 0.19
[16]
  % Dead Cells: 16.5%
  % Viability: 83.5%
  Proliferation Rate: 0.09
[17]
  % Dead Cells: 27.2%
  % Viability: 72.8%
  Proliferation Rate: 0.10
[18]
  % Dead Cells: 5.0%
  % Viability: 95.0%
  Proliferation Rate: 0.21
[19]
  % Dead Cells: 23.4%
  % Viability: 76.7%
  Proliferation Rate: 0.08
[20]
  % Dead Cells: 9.4%
  % Viability: 90.6%
  Proliferation Rate: 0.28
[21]
  % Dead Cells: 25.9%
  % Viability: 74.2%
  Proliferation Rate: 0.14
[22]
  % Dead Cells: 8.8%
  % Viability: 91.2%
  Proliferation Rate: 0.14
[23]
  % Dead Cells: 13.7%
  % Viability: 86.4%
  Proliferation Rate: 0.04
[24]
  % Dead Cells: 13.2%
  % Viability: 86.8%
  Proliferation Rate: 0.25
[25]
  % Dead Cells: 22.8%
  % Viability: 77.3%
  Proliferation Rate: 0.12
[26]
  % Dead Cells: 23.1%
  % Viability: 76.9%
  Proliferation Rate: 0.11
[27]
  % Dead Cells: 29.3%
  % Viability: 70.7%
  Proliferation Rate: 0.10
[28]
  % Dead Cells: 43.1%
  % Viability: 56.9%
  Proliferation Rate: 0.03
[29]
  % Dead Cells: 13.6%
  % Viability: 86.4%
  Proliferation Rate: 0.09
[30]
  % Dead Cells: 25.0%
  % Viability: 75.0%
  Proliferation Rate: 0.05
[31]
  % Dead Cells: 55.6%
  % Viability: 44.5%
  Proliferation Rate: 0.03
[32]
  % Dead Cells: 19.6%
  % Viability: 80.4%
  Proliferation Rate: 0.13
[33]
  % Dead Cells: 26.2%
  % Viability: 73.9%
  Proliferation Rate: 0.10
[34]
  % Dead Cells: 32.5%
  % Viability: 67.5%
  Proliferation Rate: 0.03
[35]
  % Dead Cells: 35.4%
  % Viability: 64.6%
  Proliferation Rate: 0.04
[36]
  % Dead Cells: 36.1%
  % Viability: 63.9%
  Proliferation Rate: 0.13
[37]
  % Dead Cells: 45.2%
  % Viability: 54.8%
  Proliferation Rate: 0.07
[38]
  % Dead Cells: 35.6%
  % Viability: 64.4%
  Proliferation Rate: 0.04
[39]
  % Dead Cells: 25.0%
  % Viability: 75.0%
  Proliferation Rate: 0.09
[40]
  % Dead Cells: 29.0%
  % Viability: 71.0%
  Proliferation Rate: 0.03
[41]
  % Dead Cells: 11.9%
  % Viability: 88.1%
  Proliferation Rate: 0.08
[42]
  % Dead Cells: 47.2%
  % Viability: 52.8%
  Proliferation Rate: 0.03
[43]
  % Dead Cells: 56.7%
  % Viability: 43.4%
  Proliferation Rate: 0.04
[44]
  % Dead Cells: 21.5%
  % Viability: 78.5%
  Proliferation Rate: 0.13
[45]
  % Dead Cells: 21.6%
  % Viability: 78.4%
  Proliferation Rate: 0.11
[46]
  % Dead Cells: 50.0%
  % Viability: 50.0%
  Proliferation Rate: 0.02
[47]
  % Dead Cells: 23.6%
  % Viability: 76.5%
  Proliferation Rate: 0.15
[48]
  % Dead Cells: 38.6%
  % Viability: 61.4%
  Proliferation Rate: 0.02
M4N in DMSO or CPE formulation vs non-M4N-treated controls in the same formulation
  Cell proliferation rate: reduced
[49]
  % Dead Cells: 5.1%
  % Viability: 94.9%
  Proliferation Rate: 0.25
[50]
  % Dead Cells: 26.3%
  % Viability: 73.7%
  Proliferation Rate: 0.10
[51]
  % Dead Cells: 55.6%
  % Viability: 44.4%
  Proliferation Rate: 0.01
[52]
  % Dead Cells: 40.2%
  % Viability: 59.8%
  Proliferation Rate: 0.01
[53]
  % Dead Cells: 12.0%
  % Viability: 88.0%
  Proliferation Rate: 0.32
[54]
  % Dead Cells: 25.8%
  % Viability: 74.2%
  Proliferation Rate: 0.11
[55]
  % Dead Cells: 58.1%
  % Viability: 41.9%
  Proliferation Rate: 0.05
[56]
  % Dead Cells: 59.7%
  % Viability: 40.3%
  Proliferation Rate: 0.03
read-out: M4N sufficient to cause about a 50% inhibition in cell proliferation, CPE formulation, 72 hr
  IC50: ~20 µM
